Here are results for eleven molecules from ChEMBL document CHEMBL1201862, “PubChem BioAssay data set” (2004).

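Interpolation was linear, between the two tested concentrations surrounding the appropriate level; five concentrations were tested over 48 hours in 96-well plates. GI50 = concentration required for 50% inhibition of growth.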 Activity calls are given as the source filed them. No stated cut-off is given here; in the data, active = GI50 up to about 1.1 µM and inactive = higher.

Assay in all cases: NCI-60 cell line screen, 48 h
For experiment [1], the system named is EKVX.
The subject of experiment [2] is SNB-19.
Experiment [3] has as its system SNB-78.
The test system of experiment [4] is MOLT-4.
For experiment [5], the system named is DLD-1.
The test system of experiment [6] is SF-539.
In experiment [7] the test system is SF-295.
Experiment [8] deals with UO-31.
The test system of experiment [9] is M19-MEL.
For experiment [10], the system named is SK-MEL-28.
The test system of experiment [11] is RXF 393.
Experiment [12] deals with A549.
The test system of experiment [13] is UACC-257.
Experiment [14] has as its system UACC-62.
Experiment [15] concerns LOX IMVI.
Experiment [16] has as its system NCI/ADR-RES.

Turning to `COc1ccc(Br)c(CN2CCc3ccccc32)c1OS(=O)(=O)c1ccc(C)cc1`, the GI50 in [1] is 58.7 µM (inactive); in experiment [2], 42.5 µM (inactive); in experiment [3] it was 23.3 µM (inactive); in experiment [4], 29.3 µM (inactive); in experiment [5] it was 15.3 µM (inactive); in [6] it was 15.6 µM (inactive). Besides, the GI50 in experiment [7] is 19.5 µM (inactive); in [8], 51.2 µM (inactive); in experiment [9], 4.03 µM (inactive); in experiment [10], 46 µM (inactive); in experiment [11] it was 8.67 µM (inactive); in [12], 8.17 µM (inactive). The GI50 in experiment [13] was 48.2 µM (inactive).

`Cn1c2ccccc2c2ccc3c(c21)C(=O)C(c1ccccc1)=CC3=O`: the GI50 in experiment [1] was 23.2 µM (inactive); in experiment [2], 42.5 µM (inactive); in [3], > 100 µM (inactive); in [4] it was 14.8 µM (inactive); in [5], 17.9 µM (inactive); in experiment [6], 24.2 µM (inactive). In addition, the GI50 was 61.4 µM (inactive) in [7]; 31.1 µM (inactive) in experiment [8]; 24 µM (inactive) in [9]; 24 µM (inactive) in experiment [10]; 34.4 µM (inactive) in [12]; 32.7 µM (inactive) in experiment [13].

As to `CS(=O)(=O)N/N=C/CN1C(=O)c2ccccc2C1=O`, the GI50 in experiment [1], in experiment [2], in experiment [3], in experiment [4], in experiment [5] and in experiment [6] was > 100 µM (inactive) each time. Moreover, the GI50 in experiment [7], in experiment [8], in [14], in experiment [9], in [10] and in [12] was > 100 µM (inactive) each time. In experiment [13], the GI50 was > 100 µM (inactive).

For `CC(=O)C1C(=O)C(=O)N(c2ccc(Cl)cc2C)C1=O` (stereo not given), the GI50 in experiment [1], in [2], in experiment [3], in experiment [4], in experiment [5] and in experiment [6] was > 100 µM (inactive) in each case. Further, the GI50 in [7], in [8], in experiment [14], in experiment [9], in experiment [10] and in experiment [11] was > 100 µM (inactive) in each case. In addition, the GI50 in [12] and in experiment [13] was > 100 µM (inactive) in each case.

As to `COc1ccc2c(c1)[n+]([O-])c(-c1cccc(Cl)c1)c(N)[n+]2[O-]`, the GI50 in [1] was > 100 µM (inactive); in experiment [2] it was > 100 µM (inactive); in experiment [3], 79.8 µM (inactive); in experiment [4] it was 46 µM (inactive); in experiment [5] it was 38.2 µM (inactive); in experiment [6] it was 31.3 µM (inactive). Further, the GI50 was 97.1 µM (inactive) in experiment [7]; 89.3 µM (inactive) in [8]; 30.3 µM (inactive) in experiment [9]; 23.6 µM (inactive) in experiment [10]; 53.8 µM (inactive) in experiment [11]; 32.7 µM (inactive) in experiment [12]. In experiment [13], the GI50 is 21.1 µM (inactive).

As to `COC(C(O)c1ccc2c(c1)OCO2)P(=O)(c1ccccc1)c1ccccc1` (stereo not given), the GI50 in experiment [1] was > 100 µM (inactive); in [2], > 100 µM (inactive); in experiment [3], > 100 µM (inactive); in experiment [4], > 100 µM (inactive); in experiment [5] it was 88.7 µM (inactive); in experiment [6] it was > 100 µM (inactive). Besides, the GI50 was > 10 µM (inactive) in [7]; > 100 µM (inactive) in experiment [8]; 32.4 µM (inactive) in [14]; > 100 µM (inactive) in experiment [9]; > 100 µM (inactive) in experiment [10]; 81.7 µM (inactive) in [11]. Moreover, in experiment [13], the GI50 was > 100 µM (inactive).

Consider `COc1ccc(/C=C(\C2=NC(=O)CS2)c2nc3ccccc3[nH]2)cc1`, for which the GI50 in [1] is 38.4 µM (inactive); in experiment [2], > 100 µM (inactive); in experiment [3] it was 21.5 µM (inactive); in experiment [4] it was 54.8 µM (inactive); in experiment [5], > 100 µM (inactive); in experiment [6], 4.6 µM (inactive). Moreover, the GI50 in [7] was 37.2 µM (inactive); in experiment [8], 32.7 µM (inactive); in experiment [14], > 100 µM (inactive); in [9], 43.5 µM (inactive); in experiment [10], 87.9 µM (inactive); in experiment [11] it was 3.13 µM (inactive). In addition, the GI50 is > 100 µM (inactive) in experiment [12] and 78 µM (inactive) in experiment [13].

In the case of `COc1cc(C2c3cc4c(cc3[C@@H](Oc3ccc(F)cc3)C3COC(=O)[C@H]23)OCO4)cc(OC)c1O` (stereo not given in full), the GI50 in [1] is > 43.8 µM (inactive); in experiment [15], 0.578 µM (active); in experiment [4] it was 0.359 µM (active); in experiment [5] it was 0.656 µM (active); in [16], 220 nM (active); in [6], 0.209 µM (active). In addition, the GI50 is 0.807 µM (active) in [7]; > 67.5 µM (inactive) in experiment [8]; 0.518 µM (active) in experiment [14]; 0.671 µM (active) in experiment [9]; 3.15 µM (inactive) in experiment [10]; 0.234 µM (active) in experiment [11]. The GI50 was 0.405 µM (active) in [12] and 0.59 µM (active) in [13].

In the case of `CC1C(/C=C/c2ccoc2)ON2CCCC12` (stereo not given), the GI50 in experiment [1], in experiment [2], in experiment [3], in [15], in [5] and in [6] was > 100 µM (inactive) throughout. For the same molecule, the GI50 was > 100 µM (inactive) in [7]; > 100 µM (inactive) in [8]; > 100 µM (inactive) in [9]; > 100 µM (inactive) in experiment [10]; 35.6 µM (inactive) in experiment [11]; > 100 µM (inactive) in experiment [13].

As for `NC(CCCCNCc1ccccc1)C(=O)O` (stereo not given), the GI50 in experiment [1], in experiment [2], in experiment [3], in experiment [15], in experiment [4] and in experiment [5] was > 100 µM (inactive) in each case. Besides, the GI50 in [6], in experiment [7], in experiment [8], in experiment [14], in experiment [9] and in experiment [10] was > 100 µM (inactive) in each case. Besides, the GI50 in experiment [12] and in experiment [13] was > 100 µM (inactive) in each case.

Take `N#C/C(=C/c1ccco1)C(=O)c1ccccc1`: the GI50 in [1], in experiment [3], in experiment [15], in [4], in experiment [5] and in experiment [6] was > 100 µM (inactive) throughout. Further, the GI50 in [7], in [8], in experiment [14], in experiment [9], in [10] and in experiment [12] was > 100 µM (inactive) each time. Further, the GI50 in experiment [13] is > 100 µM (inactive).
